Test results published in publication PMC10349806 (Nature Communications, 2023).
Values joined by “and” are separate entries in the source; they are usually repeats but may differ in a detail not shown here. Equal values may be shown once.

Tests used:
PfCRT variant N84A = experiment: CQ uptake assay, oocytes expressing N84A; type: cell-based, Plasmodium falciparum
Procedure: (§1) Site-directed mutagenesis of PfCRT^Dd2 was performed as described using the megaprimer method with overlap extension[21],[54]. The primer pairs used are listed in Supplementary Table 6. Please note that a codon-optimized and oocyte-adapted version of PfCRT^Dd2 was used[22] (Supplementary Fig. 16). The resulting DNA fragment was cloned into the SP64T expression vector and verified by sequencing.
(§2) Oocytes were obtained as described previously. Briefly, adult (>2 years old) female X. laevis frogs (NASCO) were anesthetized in a cooled solution of ethyl 3-amino benzoate methanesulfonate (0.1%, w/v), followed by a surgical removal of parts of the ovary. The ovary lobes were carefully dissected and small pieces of oocytes were incubated in Ca^2+-free ND96 buffer (96 mM NaCl, 2 mM KCl, 1 mM MgCl2 buffered with 5 mM HEPES/NaOH, pH 7.5) supplemented with collagenase D (0.1%, w/v; Roche), BSA (0.5%, w/v), and 9 mm Na2HPO4 at 18 °C for 14-16 h while gentle shaking. After incubation, the oocytes were carefully washed several times with ND96 buffer (96 mM NaCl, 2 mM KCl, 1.8 mM CaCl2, 1 mM MgCl2 buffered with 5 mM HEPES/NaOH, pH 7.5) supplemented with 100 mg l^−1 gentamycin). Defolliculated and healthy-looking stage V-VI oocytes were manually selected for RNA microinjection. The RNA was generated as following: The codon-optimized sequences of PfCRT variants were cloned into the pSP64T expression vector. After vector linearization using the restriction endonucleases BamHI or SalI (New England Biolabs), transcription was performed using the in vitro SP6 mMessage mMachine Kit (Ambion)[34]. The obtained RNA was kept at −80 °C and diluted with nuclease-free water to a concentration of 0.6 μg μl^−1. Precision-bore glass capillary tubes (3.5-inch glass capillaries; Drummond Scientific Co.) were pulled on a vertical puller (P-87 Flaming/Brown micropipette puller, Sutter Instrument Co.), graduated, and placed on a microinjector (Nanoject II Auto-Nanoliter Injector, Drummond Scientific Co.). 50 nl of nuclease-free water alone (control oocytes) or 50 nl of 0.6 μg μl^−1 RNA were injected under stereomicroscopic control. Injected oocytes were incubated for 46–72 h at 18 °C with twice-daily buffer changes before usage in experiments.
Drug uptake assays were performed as described previously[21],[22],[24],[34]. […] The direction of radio-labeled drug transport is here from the mostly acidic extracellular solution (pH 4.5 or 6.0, as indicated) into the oocyte cytosol (pH ∼ 7.2), which corresponds to the efflux of drug from the acidic digestive vacuole (pH 5.2) into the parasite cytoplasm (pH 7.2). The topology of PfCRT in the oolemma is such that both the N- and C-terminus face the extracellular milieu[3],[22]. In the parasite, the N- and C-terminus face the lumen of the digestive vacuole. […] For determination of the amount of drug uptake for each oocyte, the reaction medium was removed and the oocytes were washed three times with 2 ml of ice-cold ND96 buffer. Each oocyte was individually transferred to a scintillation vial containing 5% sodium dodecyl sulfate (200 μl) for lysis. […] Oocytes that were injected with water instead of RNA were analyzed in parallel, representing the uptake of a drug by diffusion and/or endogenous permeation pathways. The resulting value represents the “background“ level of drug accumulation in oocytes (in-depth discussion in[22]). The specific PfCRT-mediated uptake was determined by subtracting the corresponding background value measured in water-injected oocytes from that of PfCRT-expressing oocytes. In all cases, at least three separate experiments were performed on oocytes from different frogs (biological replicate), and for each condition in an experiment, measurements were made from 10 oocytes per treatment. For pH 5.5, 6.0, and 6.5, ND96 was buffered with 5 mM MES/Tris base.

PfCRT variant D410A = target: T1, PfCRT variant D410A (Plasmodium falciparum, UniProt Q9N623, A220S/D410A/I356T/K76T/M74I/N326S/N75E/Q271E/R371I); experiment: CQ uptake assay, oocytes expressing D410A; type: cell-based
T1 sequence (Q9N623 1-424 M74I/N75E/K76T/A220S/Q271E/N326S/I356T/R371I/D410A): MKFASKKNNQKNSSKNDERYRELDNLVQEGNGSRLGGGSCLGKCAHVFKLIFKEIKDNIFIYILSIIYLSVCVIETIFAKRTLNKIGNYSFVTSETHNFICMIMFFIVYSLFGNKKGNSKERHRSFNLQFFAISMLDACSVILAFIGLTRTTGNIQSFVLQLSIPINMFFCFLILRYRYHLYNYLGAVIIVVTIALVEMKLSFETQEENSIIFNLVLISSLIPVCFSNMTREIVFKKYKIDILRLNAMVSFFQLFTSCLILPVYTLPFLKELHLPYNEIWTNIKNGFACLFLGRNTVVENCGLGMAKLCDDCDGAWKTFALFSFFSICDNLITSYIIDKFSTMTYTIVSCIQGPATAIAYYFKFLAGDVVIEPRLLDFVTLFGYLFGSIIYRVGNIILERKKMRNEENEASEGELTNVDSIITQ
Procedure: as §1, §2
Drug uptake assays were performed as described previously[21],[22],[24],[34]. […] The direction of radio-labeled drug transport is here from the mostly acidic extracellular solution (pH 4.5 or 6.0, as indicated) into the oocyte cytosol (pH ∼ 7.2), which corresponds to the efflux of drug from the acidic digestive vacuole (pH 5.2) into the parasite cytoplasm (pH 7.2). The topology of PfCRT in the oolemma is such that both the N- and C-terminus face the extracellular milieu[3],[22]. In the parasite, the N- and C-terminus face the lumen of the digestive vacuole. CQ uptake kinetics were performed by incubating oocytes in ND96 buffer adjusted to a pH of 4.5, 5.0, 5.5, or 6.0 and supplemented with 50 nM [^3H]CQ and one of 7 different CQ concentrations (10 µM, 50 µM, 100 µM, 200 µM, 300 µM, 400 µM, 500 µM CQ). The reaction was stopped at the 60 min time point, which is in the linear uptake range[22],[34] (Supplementary Fig. 17). For determination of the amount of drug uptake for each oocyte, the reaction medium was removed and the oocytes were washed three times with 2 ml of ice-cold ND96 buffer. Each oocyte was individually transferred to a scintillation vial containing 5% sodium dodecyl sulfate (200 μl) for lysis. The radioactivity of each sample was measured using a liquid scintillation analyzer Tri-Carb 4910 TR (PerkinElmer). Oocytes that were injected with water instead of RNA were analyzed in parallel, representing the uptake of a drug by diffusion and/or endogenous permeation pathways. The resulting value represents the “background“ level of drug accumulation in oocytes (in-depth discussion in[22]). […]

[1] = N84A, 50 µM CQ, 1 h, mean ± SEM
[2] = D410A, 50 µM CQ, 1 h, mean ± SEM

CCN(CC)CCCC(C)Nc1ccnc2cc(Cl)ccc12 (stereo not drawn) [CQ, chloroquine]
Activity at pH 4.5 (PfCRT variant N84A; [1]): 1.41 ± 0.23 pmol h-1 oocyte-1 | Activity at pH 6.0 (PfCRT variant N84A; [1]): 3.24 ± 0.32 pmol h-1 oocyte-1 | R-value (PfCRT variant N84A; N84A, CQ transport at pH 4.5 / pH 6.0): 0.42 ± 0.04 and 0.42 | N84A transport activity pH 4.5 (PfCRT variant N84A; pH 4.5, individual replicates (Fig 6a)): 1.45 pmol oocyte-1 h-1 and 0.73 pmol oocyte-1 h-1 and 1.46 pmol oocyte-1 h-1 and 2.00 pmol oocyte-1 h-1 | N84A transport activity pH 6.0 (PfCRT variant N84A; pH 6.0, individual replicates (Fig 6a)): 3.16 pmol oocyte-1 h-1 and 3.18 pmol oocyte-1 h-1 and 4.19 pmol oocyte-1 h-1 | N84A R-value (PfCRT variant N84A; transport activity pH 4.5 relative to pH 6.0 (Fig 6a)): 0.46 and 0.30 and 0.48 | Activity at pH 4.5 (PfCRT variant D410A; [2]): 2.38 ± 0.18 pmol h-1 oocyte-1 | Activity at pH 6.0 (PfCRT variant D410A; [2]): 5.09 ± 0.24 pmol h-1 oocyte-1 | R-value (PfCRT variant D410A; D410A, CQ transport at pH 4.5 / pH 6.0): 0.47 ± 0.06 | D410A transport activity pH 4.5 (PfCRT variant D410A; pH 4.5, single replicates, Fig 1d left): 2.74 pmol oocyte-1 h-1 and 1.99 pmol oocyte-1 h-1 and 2.40 pmol oocyte-1 h-1 | D410A R-value (PfCRT variant D410A; pH 4.5 vs pH 6.0, Fig 1d left): 0.60 and 0.35 and 0.47 | D410A transport activity pH 6.0 (PfCRT variant D410A; pH 6.0, single replicates, Fig 1d left): 4.58 pmol oocyte-1 h-1 and 5.61 pmol oocyte-1 h-1 and 5.09 pmol oocyte-1 h-1
